Marks after values point to notes of the source that are not given here.
Tests used:
[1] = tested on: K. pneumoniae ATCC 43816 (WT); assay: MIC of antibiotics with and without EPI (REMA), WT strain; assay type: cell-based, Klebsiella pneumoniae; conditions: K. pneumoniae WT
Protocol: Overnight cultures were diluted to an OD600 = 0.001 in CAMHB followed by addition of efflux pump inhibitors (EPIs) at a final concentration of 100 µM. […] Plates were incubated at 37 °C for up to 20 h. […] MICs were defined as the concentration that prevented 90% of resazurin turnover compared to the non-treated bacteria.

[2] = Microsomal stability in mouse liver microsomes; assay type: in vitro ADME; conditions: female
Protocol: To determine compound microsomal stability, liver microsomes from female mice (CD-1, Corning) were used. All incubations were performed in duplicate in a shaking water bath at 37 °C. The incubation mixtures contained 1 μM compound with 1% MeOH used as a vehicle, mouse liver microsomes (0.3 mg of microsomal protein per mL), 5 mM MgCl2, 1 mM NADP, 5 mM glucose 6-phosphate, 0.4 U/mL glucose 6-phosphate dehydrogenase, and 50 mM potassium phosphate buffer (pH 7.4) in a final volume of 0.5 mL. Propranolol, known as a high hepatic clearance drug in rodents, was used as a quality-control compound. Controls (t0 and tfinal) were performed in the same conditions but without NADP. The reaction was initiated by the addition of the compound at 1 µM final. Aliquots were removed at 5, 10, 20, 30, and 40 min and the reaction was stopped by adding four volumes of ice-cold MeCN or MeOH containing an internal standard. The samples were centrifuged for 10 min at 12,000 rpm at 4 °C and the supernatants were transferred in matrix tubes for LC-MS/MS analysis. Each compound was quantified by converting the corresponding analyte/internal standard peak area ratios to percentage drug remaining, using the initial ratio values in control incubations as 100%.
Intrinsic clearance (CLint) is expressed as μL/min/mg proteins.

Solubility in PBS pH 7.4 = assay type: physicochemical; conditions: PBS pH 7.4, pH 7.4, aqueous buffer, thermodynamic from solid
Protocol: 0.5 mg of BDM91288 (5) were dissolved either in 1235 μL of PBS pH 7.4 (triplicate) or in 1235 µL of DMSO (triplicate twice). After gently stirring 24 h at room temperature, the solutions were centrifuged for 5 min at 4000 rpm and filtered over 0.45-μm filters (Millex-LH Millipore), excepted one of the DMSO triplicate. Then, 2 µL of each solution was diluted in 998 µL of MeOH were transferred in matrix tubes for LC-MS/MS analysis. The solubility was determined according to the following formula: Solubility (µM) = [AUC(filtered PBS)/AUC(not filtered DMSO)] × 1000.

[3] = Plasma protein binding by equilibrium dialysis; assay type: in vitro ADME; conditions: pH 7.4, mouse plasma, read-out: plasma protein binding, Funbound
Protocol: In vitro plasma protein binding of BDM91288 (5) was measured in mouse plasma using equilibrium dialysis. The RED inserts were placed in a 48-well Teflon Plate (Pierce). Samples were prepared by mixing test compound with plasma at the appropriate concentration to reach a final drug concentration of 10 μM. Triplicate aliquots of plasma containing BDM91288 (5) at a concentration of 10 μM were pipetted to plasma side (red) of the insert and PBS pH 7.4 was placed into the receiver side (white) of the insert. The plate was covered with sealing tape and incubated in a 37 °C orbital shaker water bath for 4 h. Following incubation, samples were prepared in a mixed matrix configuration. Aliquots of samples were pipetted into 96-well plates and precipitation buffer was added to precipitate the proteins. Samples were mixed by vortexing, then centrifuged for 10 min at 12,000 rpm at 4 °C. The supernatant was assayed directly by LC-MS/MS. The following equation was used to calculate the percentage of bound drug fraction (% PPB) using this equilibrium dialysis method: % unbound = ([Buffer chamber]/[Plasma chamber) × 100.

[4] = target: T1, hERG Human Potassium Ion Channel (Homo sapiens, UniProt Q12809); assay: hERG [3H] Dofetilide binding assay; conditions: at 30 µM
T1 construct: Eurofins Cerep France (contract assay)
T1 sequence (Q12809 whole entry): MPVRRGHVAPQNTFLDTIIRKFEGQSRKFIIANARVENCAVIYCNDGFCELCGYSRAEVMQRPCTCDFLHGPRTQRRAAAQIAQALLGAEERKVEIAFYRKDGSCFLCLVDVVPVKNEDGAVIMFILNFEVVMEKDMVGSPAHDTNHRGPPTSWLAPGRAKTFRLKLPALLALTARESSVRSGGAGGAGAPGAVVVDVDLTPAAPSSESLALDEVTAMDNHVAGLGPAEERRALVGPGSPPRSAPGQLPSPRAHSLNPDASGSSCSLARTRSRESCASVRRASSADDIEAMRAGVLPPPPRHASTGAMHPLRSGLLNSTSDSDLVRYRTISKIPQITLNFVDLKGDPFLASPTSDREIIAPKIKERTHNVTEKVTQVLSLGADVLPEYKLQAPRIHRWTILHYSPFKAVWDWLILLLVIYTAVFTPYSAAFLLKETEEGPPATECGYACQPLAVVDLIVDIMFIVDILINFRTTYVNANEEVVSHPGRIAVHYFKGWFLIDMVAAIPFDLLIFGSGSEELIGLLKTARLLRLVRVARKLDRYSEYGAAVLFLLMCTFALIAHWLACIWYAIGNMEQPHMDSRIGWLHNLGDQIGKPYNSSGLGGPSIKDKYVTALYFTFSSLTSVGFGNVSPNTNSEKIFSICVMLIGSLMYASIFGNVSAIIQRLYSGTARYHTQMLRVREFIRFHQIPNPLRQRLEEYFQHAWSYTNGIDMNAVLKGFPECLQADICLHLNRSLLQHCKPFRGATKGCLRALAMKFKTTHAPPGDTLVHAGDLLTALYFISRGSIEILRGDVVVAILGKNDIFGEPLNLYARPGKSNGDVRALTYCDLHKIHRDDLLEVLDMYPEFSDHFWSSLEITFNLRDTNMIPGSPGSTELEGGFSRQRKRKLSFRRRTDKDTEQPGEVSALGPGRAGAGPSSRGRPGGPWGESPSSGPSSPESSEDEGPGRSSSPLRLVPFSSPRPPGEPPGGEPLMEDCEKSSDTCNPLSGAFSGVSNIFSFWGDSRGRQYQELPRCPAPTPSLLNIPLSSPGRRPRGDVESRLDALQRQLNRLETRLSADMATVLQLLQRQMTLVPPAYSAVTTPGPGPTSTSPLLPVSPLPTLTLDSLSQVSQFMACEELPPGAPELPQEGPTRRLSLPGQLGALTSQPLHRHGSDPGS
Protocol: hERG (human ether-a-go-go-related gene) inhibition was measured at Eurofins Cerep France using hERG Human Potassium Ion Channel [3H] Dofetilide Binding (Antagonist Radioligand) Assay.

in vitro = assay type: cell-based; conditions: mouse, BALB/3T3 cells, read-out: in vitro cytotoxicity CC50
Protocol: BALB/3T3 cells (CCL-163 from ATCC) were not authenticated. The cell lines were tested negative for mycoplasma contamination (kit mycoalert LONZA). The cytotoxicity of compound BDM91288 (5) was determined on BALB/3T3 cells using live imaging following both Hoechst 33342 and propidium iodide staining. Propidium iodide is a not membrane-permeable DNA stain, allowing to differentiate necroptic, apoptotic and healthy cells based on loss of membrane integrity. […] Final medium volume was 70 µL. 24 h after compounds addition, live imaging was performed using the automated confocal microscope In Cell Analyzer 6000 (GE Healthcare). The cytotoxicity was defined as the percent of cells labelled by propidium iodide in the total cell population (Hoechst labelled cells) using Columbus software (Perkin Elmer). Compounds were tested in triplicate. Carfilzomib (499, 249, […], 61, and 30.6 nM) was used as a positive control in this assay.

[5] = Toxicity in mice after a single oral administration; assay type: in vivo; conditions: over a 24-h period after a single oral administration at 30 mg/kg
Protocol: For these reasons, this compound was selected for multi-organ pharmacokinetic (PK) studies to measure its temporal distribution and tissue concentration in female mice (CD-1), following a single oral administration of 30 mg/kg (Fig. EV3A; Appendix Table S3).

For `C[C@H]1COc2c(N3CCN(C)CC3)c(F)cc3c(=O)c(C(=O)O)cn1c23` [Levofloxacin], the “Minimum Inhibitory Concentration” value ([1]; + 100 µM 1') was 0.01^# mg/L, the “Minimum Inhibitory Concentration” value ([1]; + 100 µM 5) was 0.01^# mg/L and the “Minimum Inhibitory Concentration” value ([1]; + 100 µM PAβN) was 0.02^# mg/L. The MIC ([1]; Klebsiella pneumoniae, ATCC43816, No EPI, read-out: Minimum Inhibitory Concentration) was 0.04 µg/mL.
For `Clc1cc2cc(N3CCNCC3)ccc2nc1N1CCNCC1` [compound 5], the microsomal CLint at 1 μM ([2]; CD-1, pH 7.4, read-out: Microsomal stability CLint (intrinsic clearance)) was 6 µL/min/mg, the half-life at 1 μM ([2]; CD-1, pH 7.4, read-out: Microsomal stability t1/2) was > 40 min and the solubility at 24 h (Solubility in PBS pH 7.4) was ≥ 1000 µM. For the same molecule, the fraction unbound at 4 h, 10 μM [3] was 0.54, the “inhibition of the hERG potassium channel” value [4] was 8% and the CC50 at 24 h (in vitro) was 48 µM. The toxicity in mice [5] was “no toxicity was observed”.
